This note sets out measurements from ChEMBL document CHEMBL2439984, “Design, synthesis, and bioevaluation of viral 3C and 3C-like protease inhibitors” (Bioorg Med Chem Lett, 2013).

The subject of data set [1] is Norwalk virus. Nature of the data set: Antiviral activity against Norwalk virus infected in human HG23 cells. Type of data set: functional, cell-based.
A short description of data set [2]: Cytotoxicity against human HG23 cells after 72 hrs by crystal violet staining-based assay. Type of data set: cell-based.
The nature of data set [3]: Inhibition of Norovirus MD145 protease 3C by FRET assay.
A short description of data set [4]: Antiviral activity against Human rhinovirus 18 infected in human […] cells. Type of data set: functional, cell-based, Human rhinovirus A18. Conditions: Rhinovirus A.
The nature of data set [5]: Inhibition of SARS coronavirus protease 3C by FRET assay. More on the design: species or system Severe acute respiratory syndrome-related coronavirus.
Data set [6] can be described thus: Inhibition of Human rhinovirus sp. […] protease by FRET assay.
In data set [7] the test system is Human coronavirus 229E. The data set can be described thus: Antiviral activity against Coronavirus 229E infected in human […] cells. Type of data set: functional, organism-based.
Data set [8] can be described thus: Antiviral activity against Murine norovirus 1 infected in human […] cells. Type of data set: functional, cell-based. Particulars: Norwalk virus.
Data set [9] addresses T1, Neutrophil elastase (Homo sapiens) (UniProt P08246).
T1 sequence (whole entry): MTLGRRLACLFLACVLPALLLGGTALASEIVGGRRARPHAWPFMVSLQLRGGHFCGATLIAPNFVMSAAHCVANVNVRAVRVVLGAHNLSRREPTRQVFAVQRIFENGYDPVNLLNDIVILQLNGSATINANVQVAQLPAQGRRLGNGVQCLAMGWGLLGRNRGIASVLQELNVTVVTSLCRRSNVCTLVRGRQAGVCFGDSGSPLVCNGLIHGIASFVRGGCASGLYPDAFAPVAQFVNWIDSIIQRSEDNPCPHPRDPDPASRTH
The data set can be described thus: Inhibition of human neutrophil elastase using MeO-Suc-Ala-Ala-Pro-Val-pNa as substrate up to 10 uM preincubated for 30 mins prior to substrate addition measured for 120 seconds by spectrophotometric analysis.

Data set [10] deals with Replicase polyprotein 1ab (Severe acute respiratory syndrome-related coronavirus, UniProt P0C6X7). Nature of the data set: Inhibition of SARS coronavirus 3C-like protease by FRET assay.
The species entered for data set [11] is Homo sapiens. Nature of the data set: Inhibition of alpha-chymotrypsin (unknown origin) using Suc-Ala-Ala-Pro-Phe as substrate up to 10 uM preincubated for 10 mins prior to substrate addition measured for 60 seconds by spectrophotometric analysis.
The target of data set [12] is Trypsin (Homo sapiens) (UniProt P07477+P07478+P35030). The data set can be described thus: Inhibition of trypsin (unknown origin) using BAPNA as substrate up to 10 uM preincubated for 10 mins prior to substrate addition measured for 300 seconds by spectrophotometric analysis. Type of data set: protein assay.
Data set [13] deals with Prothrombin (Homo sapiens) (UniProt P00734). Nature of the data set: Inhibition of thrombin (unknown origin) using N-p-tosyl-Gly-Pro-Lys-pNa as substrate up to 10 uM preincubated for 30 mins prior to substrate addition measured for 120 seconds by spectrophotometric analysis.

Active and inactive are the calls of the source. The rule behind the calls is not given here. Where only a bound is given, the exact number is not on record here.

By EC50 is commonly meant the concentration that produces a half-maximal response. Higher therefore signals lower potency in that assay. Turning to `CC(C)C[C@H](NC(=O)[C@H](Cc1ccc(-c2ccccc2)cc1)NC(=O)OCc1ccccc1)C(=O)N[C@H](C=O)C[C@@H]1CCNC1=O`, the EC50 in data set [1] came to 50 nM. This counts as double-digit nanomolar.

What is called CC50 is the concentration that lowers cell viability or growth by half. What is called IC50 is the concentration that gives 50% inhibition. High values mean weaker potency, low ones greater potency. For the compound `CC(C)C[C@H](NC(=O)[C@H](Cc1cccc2ccccc12)NC(=O)OCc1ccccc1)C(=O)N[C@@H](C[C@@H]1CCNC1=O)C(=O)C(=O)NC(C)C`, the CC50 at 72 h in data set [2] was greater than 100000 nM. Besides, the figures for the IC50 in data set [3], in data set [5] and in data set [6] were 3100 nM, 610 nM and 120 nM, respectively. For the same compound, the EC50 is 30 nM in [4], 4200 nM in data set [1], 500 nM in [7] and 4200 nM in data set [8].

The compound `CC(C)C[C@H](NC(=O)[C@H](Cc1ccc2ccccc2c1)NC(=O)OCc1ccccc1)C(=O)N[C@H](C=O)C[C@@H]1CCNC1=O` came in with an EC50 in data set [1] of 80 nM.

`CCOP(=O)(OCC)C(O)[C@H](C[C@@H]1CCNC1=O)NC(=O)[C@H](CC(C)C)NC(=O)[C@H](Cc1cccc2ccccc12)NC(=O)OCc1ccccc1` (stereo partly specified) gave an EC50 in data set [1] of 100 nM.

Compound `CC(C)C[C@H](NC(=O)[C@H](Cc1cccc2ccccc12)NC(=O)OCc1ccccc1)C(=O)N[C@H](C=O)C[C@@H]1CCNC1=O` returned a 50% cytotoxic concentration (CC50) at 72 h in [2] of 87000 nM. Moreover, the half-maximal inhibitory concentration (IC50) in data set [3] was found to be 510 nM; in data set [10], 230 nM; in [6], 150 nM. The EC50 in data set [4] is 15 nM; in data set [1] it was 40 nM; in [7], 200 nM; in [8], 600 nM. Moreover, the inhibition result in [9], in [11], in data set [12] and in data set [13] was “inactive” throughout.

As for `CC(C)C[C@H](NC(=O)[C@H](Cc1ccccc1)NC(=O)OCc1ccccc1)C(=O)N[C@H](C=O)C[C@@H]1CCNC1=O`, the EC50 in data set [1] was found to be 60 nM.

In data set [1], `CC(C)C[C@H](NC(=O)[C@@H](Cc1cccc2ccccc12)NC(=O)OCc1ccccc1)C(=O)N[C@H](C=O)C[C@@H]1CCNC1=O` showed an EC50 of 450 nM.

On to `CC(C)C[C@H](NC(=O)[C@H](Cc1cccc2ccccc12)NC(=O)OCc1ccccc1)C(=O)N[C@@H](C[C@@H]1CCNC1=O)C(O)S(=O)(=O)O` (stereo partly specified), for which the half-maximal effective concentration (EC50) in data set [1] was 40 nM.
